# Test results taken from patent US8088806B2 (Achillion Pharmaceuticals, Inc., priority 2005, dated 2012).
# System: HCV replicon
# Test: Replicon based assay of HCV replication inhibition (NPT ELISA)
# Assay type: cell-based, Hepatitis C virus
# Details: Hepatitis C virus, Huh-7, 72 h, Table I; Huh-7 HCV replicon-containing cells, three days; read-out: Activity
# How it was run: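 Huh-7 cells carrying a bicistronic HCV replicon (neo, EMCV-IRES-driven NS3–NS5B) treated overnight after seeding with usually 6 concentrations, 10 to 0.03 micromolar, for three days at 37° C without G418. Replication read as NPT level by captured ELISA; matched-DMSO wells and interferon alpha as controls.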
row,Structure (SMILES),EC50 [nM]
1,"Clc1ccc(-c2csc(Nc3ccc(Cc4ccccc4)cc3)n2)cc1 [compound 42, N-(4-benzylphenyl)-4-(4-chlorophenyl)thiazol-2-amine]",> 10000
2,"CCCCCOc1ccc(Nc2nc(-c3ccc(O)c(C(N)=O)c3)cs2)cc1C(F)(F)F [compound 131, 5-(2-(3-(trifluoromethyl)-4-(pentyloxy)phenylamino)thiazol-4-yl)-2-hydroxybenzamide]",< 1000
3,"CCCCCOc1ccc(Nc2nc(C(=O)Nc3cccnc3)cs2)cc1C(F)(F)F [compound 14, 2-(3-(trifluoromethyl)-4-(pentyloxy)phenylamino)-N-(pyridin-3-yl)thiazole-4-carboxamide]",< 1000
4,"CCCCCOc1ccc(Nc2nc(C(=O)Nc3ccc(Cl)c(Cl)c3)cs2)cc1C(F)(F)F [compound 128, 2-(3-(trifluoromethyl)-4-(pentyloxy)phenylamino)-N-(3,4-dichlorophenyl)thiazole-4-carboxamide]",1000 to 10000

# Same assay, conditions: Hepatitis C virus, Huh-7, 72 h, Table III; Huh-7 HCV replicon-containing cells, three days; read-out: Activity
row,Structure (SMILES),EC50 [nM]
1,"CCCCCCCCN(C)c1ccc(Nc2nc(-c3ccc(F)cc3)cs2)cc1C(F)(F)F [compound 568, 2-(trifluoromethyl)-N^4-(4-(4-fluorophenyl)thiazol-2-yl)-N^1-methyl-N^1-octylbenzene-1,4-diamine]",< 1000

# Same assay, conditions: Hepatitis C virus, replicon based assay of HCV replication inhibition; Table II; read-out: Activity
row,Structure (SMILES),EC50 [nM]
1,"CCCCCCCCOc1ccc(Nc2nc(CN3CCC(O)CC3)cs2)cc1 [compound 321, 1-((2-(4-(octyloxy)phenylamino)thia-zol-4-yl)methyl)piperidin-4-ol]",1000 to 10000
2,CCCCCCCCOc1ccc(Nc2nc(CN3CCN(Cc4ccccn4)CC3)cs2)cc1 [compound 313],1000 to 10000
3,"Fc1ccc(-c2csc(Nc3ccc(OC4CCCC4)c(C(F)(F)F)c3)n2)cc1F [compound 257, N-(4-(cyclopentyloxy)-3-(trifluoromethyl)phenyl)-4-(3,4-difluorophenyl)thiazol-2-amine]",< 1000
4,"Cc1ccc(-c2csc(Nc3ccc(OCCCC4CCCC4)c(C(F)(F)F)c3)n2)cn1 [compound 496, N-(4-(3-cyclopentylpropoxy)-3-(trifluoromethyl)phenyl)-4-(6-methylpyridin-3-yl)thiazol-2-amine]",< 1000
5,"CCCCCOc1ccc(Nc2nc(-c3cn4cccnc4n3)cs2)cc1C(F)(F)F [compound 263, 4-(imidazo[1,2-a]pyrimidin-2-yl)-N-(4-(pentyloxy)-3-(trifluoromethyl)phenyl)thia-zol-2-amine]",< 1000

# Same assay, conditions: Hepatitis C virus, replicon based assay of HCV replication inhibition; Table IV; read-out: Activity
row,Structure (SMILES),EC50 [nM]
1,"Cc1cc(C)c(Nc2nc(-c3cccnc3)cs2)c(C)c1 [compound 883, N-mesityl-4-(pyridin-3-yl)thiazol-2-amine]",> 10000
2,"O=C(O)Cc1ccc(-c2csc(Nc3ccc(OCCCCc4cccs4)c(C(F)(F)F)c3)n2)s1 [compound 925, 2-(5-(2-(4-(4-(thiophen-2-yl)butoxy)-3-(trifluoromethyl)phenylamino)thiazol-4-yl)thiophen-2-yl) acetic acid]",< 1000
3,"NC(=O)c1ccc(Nc2nc(-c3cccnc3)cs2)cc1 [compound 873, 4-(4-(pyridin-3-yl)thiazol-2-ylamino)benzamide]",> 10000
4,"COc1ncc(-c2csc(Nc3ccc(OCCCCc4ccc(C)cc4)c(C(F)(F)F)c3)n2)cn1 [compound 829, N-(4-(4-p-tolylbutoxy)-3-(trifluoromethyl)phenyl)-4-(2-methoxypyrimidin-5-yl)thiazol-2-amine]",< 1000
5,"c1ccc(-c2cc(Nc3nc(-c4cccnc4)cs3)[nH]n2)cc1 [compound 754, 3-phenyl-N-(4-(pyridin-3-yl)thiazol-2-yl)-1H-pyrazol-5-amine]",> 10000
6,"NC(=O)c1sccc1-c1csc(Nc2ccc(OCC3CCCCC3)c(F)c2)n1 [compound 725, 3-(2-(4-(cyclohexylmethoxy)-3-fluorophenylamino)thiazol-4-yl)thiophene-2-carboxamide]",< 1000
7,"Fc1sc(Nc2ccc(OCCCC3CCCC3)c(C(F)(F)F)c2)nc1-c1cccnc1 [compound 945, N-(4-(3-cyclopentylpropoxy)-3-(trifluoromethyl)phenyl)-5-fluoro-4-(pyridin-3-yl)thiazol-2-amine]",< 1000
